We go through 17 compounds from US12466831B2, “Substituted amino triazolopyrimidine and amino triazolopyrazine adenosine receptor antagonists, pharmaceutical compositions and their use” (Merck Sharp & Dohme LLC, priority 2018, dated 2025).

Test [1] has as its target T1, human A2a adenosine receptor (Homo sapiens, UniProt P29274).
T1 construct: purchased Perkin Elmer RBHA2aM400UA; host or cells: HEK293 or CHO cells (recombinant expression)
Description: A2a binding affinity using radioligand binding, Method (A). Conditions: Method (A): [3H]SCH58261 filtration binding, membranes expressing human A2a. In short, it runs like this: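 Filtration binding used human A2a membranes from HEK293 or CHO cells, preincubated with compound 15–30 min. [3H]SCH58261 (diluted to 4 nM) was then added in Tris pH 7.4, MgCl2, Tween20 buffer, with 60 min at room temperature. Non-specific binding was defined by 1 μM ZM241385, and IC50 came from a 4-parameter logistic fit.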

The target in test [2] is T2, human A2b adenosine receptor (Homo sapiens, UniProt P29275).
T2 construct: purchased Perkin Elmer ES-013-C; host or cells: HEK293 cells recombinantly expressing the receptor; membranes made from them
T2 sequence (P29275 1-332): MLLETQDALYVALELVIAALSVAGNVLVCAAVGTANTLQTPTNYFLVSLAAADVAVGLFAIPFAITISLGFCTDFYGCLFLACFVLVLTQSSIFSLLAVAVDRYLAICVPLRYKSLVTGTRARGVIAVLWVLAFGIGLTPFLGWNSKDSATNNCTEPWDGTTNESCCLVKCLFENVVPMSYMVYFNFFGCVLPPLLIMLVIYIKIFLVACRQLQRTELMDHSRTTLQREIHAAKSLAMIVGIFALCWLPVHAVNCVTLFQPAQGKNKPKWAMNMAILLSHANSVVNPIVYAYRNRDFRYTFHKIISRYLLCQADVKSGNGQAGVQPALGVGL
Description: A2b binding affinity, radioligand filtration binding assay. Conditions: tritiated proprietary A2b antagonist, HEK293 membranes expressing human A2b. An excerpt:
Method (A) describes the procedure used to measure A2a binding affinity using radioligand binding. Method (B) describes the procedure used to measure A2a binding affinity using SPA technology. The method used to measure A2b binding affinity is also described below. The method used to determine the A2a IC50 value reported for each compound in the table is indicated next to the reported value. The A2b IC50 value measured using the A2b binding affinity assay is shown in the table next to the compound under the corresponding A2a value.
Measurement of A2b Binding Affinity
The reported affinity of the compounds of the invention for the human A2b adenosine receptor was determined experimentally using a radioligand filtration binding assay. This assay measures the amount of binding of a tritiated proprietary A2b receptor antagonist, in the presence and absence of a compound of the invention, to membranes made from HEK293 cells recombinantly expressing the human A2b adenosine receptor (Perkin Elmer, Cat. No. ES-013-C).
148 μL (135 μg/mL) membranes and 2 μL test compounds were transferred to individual wells of a 96-well polypropylene assay plate and incubated for 15 to 30 minutes at room temperature with agitation. Tritiated radioligand was diluted to a concentration of 14 nM in assay buffer (phosphate buffered saline without Magnesium and Calcium, pH 7.4; GE Healthcare Life Sciences, Cat. No. SH30256.01) and then 50 μL of the solution were transferred to each well of the assay plate. To define total and non-specific binding, wells containing 1% DMSO and 20 μM N-ethylcarboxamidoadenosine (Tocris Bioscience, Cat. No. 1691) respectively, were also included. The wells of the assay plate were incubated at room temperature for 60 minutes with agitation, then filtered using a FilterMate Harvester® (Perkin Elmer) or similar equipment through a UniFilter-96® PEI coated plate (Perkin Elmer Cat. No. 6005274 or 6005277). Filtering was achieved by aspirating the contents of the assay plate for 5 seconds, then washing and aspirating the contents three times with ice-cooled wash buffer (assay buffer supplemented with 0.0025% Brij58) and allowing the vacuum manifold to dry the plate for 30 seconds. The filter plate was incubated for at least 1 hour at 55° C. and allowed to dry. The bottom of the filter plate was then sealed with backing tape. 40 μL Ultima Gold™ (Perkin Elmer, Cat. No. 6013329) was added to each well of the filter plate and the top of the plate was sealed with TopSeal-A PLUS® clear plate seal (Perkin Elmer, Cat. No. 6050185). The plates were then incubated for at least 20 minutes, and then the amount of radioactivity remaining in each well was determined using a TopCount® (Perkin Elmer) scintillation counter. After normalization to total and non-specific binding, the percent effect at each compound concentration was calculated. The plot of percent effect versus the log of compound concentration was analyzed electronically using a 4-parameter logistic fit based on the Levenberg-Marquardt algorithm to generate IC50 values.

T1 sequence (P29274 whole entry): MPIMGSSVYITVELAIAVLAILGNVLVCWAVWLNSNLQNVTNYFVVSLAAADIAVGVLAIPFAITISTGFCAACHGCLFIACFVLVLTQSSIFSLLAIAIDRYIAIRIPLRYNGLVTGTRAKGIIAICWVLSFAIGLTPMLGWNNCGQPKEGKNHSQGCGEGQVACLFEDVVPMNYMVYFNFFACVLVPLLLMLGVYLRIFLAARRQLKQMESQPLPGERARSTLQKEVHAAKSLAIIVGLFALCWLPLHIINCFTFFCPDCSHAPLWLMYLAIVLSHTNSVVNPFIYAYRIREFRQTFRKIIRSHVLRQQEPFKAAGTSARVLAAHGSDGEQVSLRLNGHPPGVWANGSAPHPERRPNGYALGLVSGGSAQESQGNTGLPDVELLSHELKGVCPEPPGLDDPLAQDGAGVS

For `CCn1cc(N2C[C@@H](c3nc4c(C)c(-c5cccc(F)c5)nc(N)n4n3)CC[C@H]2C)cn1` [Example 2.17, 2-((3S,6R)-1-(1-ethyl-1H-pyrazol-4-yl)-6-methylpiperidin-3-yl)-7-(3-fluorophenyl)-8-methyl-[1,2,4]triazolo[1,5-c]pyrimidin-5-amine], the IC50 in test [1] came to 47.6 nM; in test [2], 2150 nM.

In the case of `Cc1c(-c2cccc(F)c2)nc(N)n2nc([C@@H]3CCCN(c4cnn(CC(C)(C)O)c4)C3)nc12` [Example 3.11, (R)-1-(4-(3-(5-amino-7-(3-fluorophenyl)-8-methyl-[1,2,4]triazolo[1,5-c]pyrimidin-2-yl)piperidin-1-yl)-1H-pyrazol-1-yl)-2-methylpropan-2-ol], the figures for the IC50 in test [1] and in test [2] were 29.2 nM and 542 nM, respectively.

Regarding `Cc1c(-c2ncco2)nc(N)c2nc(C3CCCC(C)(O)C3)nn12` (single isomer, unassigned) [Example 8.5, (1R,3S and 1S,3R) or (1R,3R and 1S,3S)-(8-amino-5-methyl-6-(oxazol-2-yl)-[1,2,4]triazolo[1,5-a]pyrazin-2-yl)-1-methylcyclohexan-1-ol], the IC50 in test [1] was 265 nM; in test [2], 9140 nM.

For `CNC(=O)C(C)(C)n1cc(N2CCC[C@@H](c3nc4c(C)c(-c5ncco5)nc(N)n4n3)C2)cn1` [Example 3.4, (R)-2-(4-(3-(5-amino-8-methyl-7-(oxazol-2-yl)-[1,2,4]triazolo[1,5-c]pyrimidin-2-yl)piperidin-1-yl)-1H-pyrazol-1-yl)-N,2-dimethylpropanamide], the figures for the IC50 in test [1] and in test [2] were 5.4 nM and 85.5 nM, respectively.

As to `Cc1c(-c2ncco2)nc(N)n2nc([C@@H]3CCCN(c4cnn(CC(C)(C)O)c4)C3)nc12` [Example 3.7, (R)-1-(4-(3-(5-amino-8-methyl-7-(oxazol-2-yl)-[1,2,4]triazolo[1,5-c]pyrimidin-2-yl)piperidin-1-yl)-1H-pyrazol-1-yl)-2-methylpropan-2-ol], the concentration for half-maximal inhibition (IC50) in test [1] turned out to be 4.7 nM; in test [2] it was 224 nM.

On to `Cc1c(-c2ncco2)nc(N)n2nc([C@@H]3CCCN(c4cnn(CC(F)(F)F)c4)C3)nc12` [Example 3.5, (R)-8-methyl-7-(oxazol-2-yl)-2-(1-(1-(2,2,2-trifluoroethyl)-1H-pyrazol-4-yl)piperidin-3-yl)-[1,2,4]triazolo[1,5-c]pyrimidin-5-amine], for which the IC50 in test [1] is 1.3 nM; in test [2], 34.4 nM.

`Cc1c(-c2ncco2)nc(N)n2nc(C3CCCC(C)(O)C3)nc12` (single isomer, unassigned) [Example 8.2-2, (1-R or S,3-R or S)-3-(5-amino-8-methyl-7-(oxazol-2-yl)-[1,2,4]triazolo[1,5-c]pyrimidin-2-yl)-1-methylcyclohexan-1-ol]: the IC50 came to 227 nM in test [1] and 7310 nM in test [2].

As to `Cc1c(-c2ncco2)nc(N)n2nc([C@@H]3CC[C@H](C)N(c4cnn(CC(C)(C)O)c4)C3)nc12` [Example 2.12, 1-(4-((2S,5R)-5-(5-amino-8-methyl-7-(oxazol-2-yl)-[1,2,4]triazolo[1,5-c]pyrimidin-2-yl)-2-methylpiperidin-1-yl)-1H-pyrazol-1-yl)-2-methylpropan-2-ol], the concentration for half-maximal inhibition (IC50) in test [1] was found to be 1 nM; in test [2], 19.8 nM.

For the compound `Cc1c(-c2cc(F)ccc2F)nc(N)c2nc([C@@H]3CCCN(c4cnn(C)c4)C3)nn12` (single isomer, unassigned) [Example 2.6], the values for the IC50 in test [1] and in test [2] were 218 nM and 436 nM, respectively.

For the compound `Cc1c(-c2ncco2)nc(N)n2nc([C@@H]3CCCNC3)nc12` [Example 2.3, (R)-8-methyl-7-(oxazol-2-yl)-2-(piperidin-3-yl)-[1,2,4]triazolo[1,5-c]pyrimidin-5-amine], the results for the IC50 in test [1] and in test [2] were 20.5 nM and 1040 nM, respectively.

As for `Cc1c(-c2cccc(F)c2)nc(Br)c2nc([C@H]3C[C@@H]3C(C)(C)O)nn12` (mixture of isomers) [Example 1.2, 2-((1S,2S and 1R,2R)-2-(8-bromo-6-(3-fluorophenyl)-5-methyl-[1,2,4]triazolo[1,5-a]pyrazin-2-yl)cyclopropyl)propan-2-ol], the IC50 amounted to 23.3 nM in test [1] and 202 nM in test [2].

Take `Cc1c(-c2cccc(F)c2)nc(N)c2nc(C3CCC(C)(O)C3)nn12` (single isomer, unassigned) [Example 8.9, (1R,3S and 1S,3R) or (1R,3R and 1S,3S)-3-(8-amino-6-(3-fluorophenyl)-5-methyl-[1,2,4]triazolo[1,5-a]pyrazin-2-yl)-1-methylcyclopentan-1-ol]: the IC50 in test [1] amounted to 357 nM; in test [2], 2090 nM.

Turning to `Cc1c(-c2ncco2)nc(N)n2nc([C@H]3C[C@@H](O)C3)nc12` [Example 2.8, (1s,3s)-3-(5-amino-8-methyl-7-(oxazol-2-yl)-[1,2,4]triazolo[1,5-c]pyrimidin-2-yl)cyclobutan-1-ol], the values for the IC50 in test [1] and in test [2] were 72.9 nM and 250 nM, respectively.

As to `Cc1c(-c2ncco2)nc(N)n2nc([C@@H]3CC[C@H](C)NC3)nc12` [Example 2.9, 8-methyl-2-((3R,6S)-6-methylpiperidin-3-yl)-7-(oxazol-2-yl)-[1,2,4]triazolo[1,5-c]pyrimidin-5-amine], the IC50 stood at 129 nM in test [1] and 2410 nM in test [2].

Regarding `Cc1c(-c2ncco2)nc(N)c2nc([C@@H]3CCCN(c4cnn(C)c4)C3)nn12` (single isomer, unassigned) [Example 2.5-1], the values for the IC50 in test [1] and in test [2] were 14.8 nM and 770 nM, respectively.

Consider `CCn1cc(N2C[C@H](c3nc4c(C)c(-c5ncco5)nc(N)n4n3)CC[C@@H]2C)cn1` [Example 2.14, 2-((3R,6S)-1-(1-ethyl-1H-pyrazol-4-yl)-6-methylpiperidin-3-yl)-8-methyl-7-(oxazol-2-yl)-[1,2,4]triazolo[1,5-c]pyrimidin-5-amine], for which the values for the half-maximal inhibitory concentration (IC50) in test [1] and in test [2] were 1.2 nM and 17.6 nM, respectively.

On to `Cc1c(-c2cccc(F)c2)nc(N)n2nc([C@@H]3CCCNC3)nc12` [Example 2.4, (R)-7-(3-fluorophenyl)-8-methyl-2-(piperidin-3-yl)-[1,2,4]triazolo[1,5-c]pyrimidin-5-amine], for which the results for the IC50 in test [1] and in test [2] were 57.7 nM and 873 nM, respectively.

As a reminder, the IC50 is the midpoint of a concentration-inhibition curve.
